Measurements reported in patent US11642307B2, “Ambrisentan for use in the treatment of acute renal failure” (Noorik Biopharmaceuticals AG, priority 2016, dated 2023).

Columns and labels:
[1] = Stability of ambrisentan liquid compositions; type: physicochemical; settings: use of an autoclave
Description: The liquid compositions of the invention can be prepared using conventional techniques. Typically, the invention pertains to a process for preparing a liquid composition comprising the steps of (a) contacting the endothelin receptor antagonist, preferably ambrisentan, the buffer and the solvent and optionally the excipient and (b) stirring the solution to allow dissolution of the various ingredients, in particular the endothelin receptor antagonist or ambrisentan; and (c) subsequently sterilizing the resulting solution. Step (a) of the process of the invention may comprise of contacting all ingredients at once or it may comprise contacting the ingredients in sequential order, whereby the one or more steps can proceed at the same temperature or at different temperatures. For example, the ingredients that easily dissolve in the solvent at room temperature can be contacted at room temperature first, and subsequently the temperature can be raised, e.g. to 50° C., after which the lowly soluble compounds are added, e.g. the endothelin receptor antagonist such as ambrisentan. Step (b) may proceed until no solid particles can be discerned visually or through analytical techniques. The sterilization of step (c) of the process can be conducted using any sterilization technique known in the art such as filtration and autoclave sterilization. […]

[2] = test system: porcine kidneys; assay: Reperfusion of porcine kidneys following ischemic injury with endothelin-1 challenge; set-up: species or system Landrace cross female pigs; settings: treated kidneys, ambrisentan 150 μg/l
Protocol: All experiments were undertaken in accordance with the Home Office animals (Scientific Procedures) Act 1986. Ten kidneys were retrieved from 5 Landrace cross female pigs weighing approximately 50 kg. Two pairs of kidneys underwent 20 minutes of warm ischaemic injury and were then flushed with 500 m1 of UW solution at 4° C. and stored on ice for 18 hours. After 18 hours cold storage, kidneys were prepared and flushed with 100 m1 of Ringer's solution 4° C. with or without liquid composition of Example 1 which is diluted to an ambrisentan concentration of 150 μg/l. They were then left at room temperature for 20 minutes. The remaining three pairs of kidneys were retrieved after 10 minutes of warm ischaemia and stored on ice for 6 hours. They were prepared and flushed as previously described then left at room temperature for 10 minutes before reperfusion.
Kidneys were perfused with 1 liter of diluted whole autologous heparinized blood at 38.0° C. for 6 hours to assess renal function and injury. 1000 μmol/l of creatinine (Sigma-Aldrich) was added to the circuit. In the treated kidneys the ambrisentan-containing liquid composition as described above (150 μg/l) was added to the reperfusion circuit 10 minutes before the start of reperfusion. In the control and treated kidneys after 2 h 50 min of reperfusion, endothelin-1 (Sigma-Aldrich) was added to the arterial line of reperfusion circuit to achieve a concentration of (20 pg/ml). A sample of the perfusate was taken from the renal vein during the post preservation flush. Perfusion data was recorded after 30 minutes of reperfusion then at each hour. Plasma and urine samples were taken pre-reperfusion, 30 minutes after reperfusion, then at hourly time points to measure renal function.

[3] = target: T1, ETB receptor (Homo sapiens, UniProt P24530); assay: Plasma endothelin-1 as measure of ETB receptor blockade in healthy human subjects; type: in vivo; settings: Group B (high dose, target 80 and 160 ng/mL)
T1 construct: from tissue; host or cells: living healthy human subjects (in vivo study; plasma endothelin-1 measured)
T1 sequence (P24530 27-442): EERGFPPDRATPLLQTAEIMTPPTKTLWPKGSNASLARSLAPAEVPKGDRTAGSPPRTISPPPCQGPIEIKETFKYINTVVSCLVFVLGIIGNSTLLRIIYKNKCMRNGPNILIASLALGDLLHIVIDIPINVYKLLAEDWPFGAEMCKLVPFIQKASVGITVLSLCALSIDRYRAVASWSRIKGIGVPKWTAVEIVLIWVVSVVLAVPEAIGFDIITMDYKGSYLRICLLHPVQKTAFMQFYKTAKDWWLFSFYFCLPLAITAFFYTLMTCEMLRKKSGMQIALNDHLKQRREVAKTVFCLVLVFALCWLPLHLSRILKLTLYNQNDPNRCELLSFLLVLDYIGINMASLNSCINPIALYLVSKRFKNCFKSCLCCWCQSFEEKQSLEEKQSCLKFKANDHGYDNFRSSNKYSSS

[4] = human studies, ambrisentan 5 and 10 mg/day; cited from earlier work
[5] = Raina et al; cited from earlier work
[6] = time 180 min (endothelin-1 20 pg/ml added after 2 h 50 min)
[7] = time 240 min (after endothelin-1)
[8] = time 300 min (after endothelin-1)
[9] = time 360 min (after endothelin-1)

In the case of `COC(c1ccccc1)(c1ccccc1)[C@H](Oc1nc(C)cc(C)n1)C(=O)O` [ambrisentan], the “stability on autoclave sterilization” value [1] is reported as “can decompose”, the Oxygen consumption ([2]; 1 h of reperfusion) is reported as 63% and the Oxygen consumption ([2]; 3 h of reperfusion) is reported as 64%. The Oxygen consumption ([2]; 6 h of reperfusion) was 55%, the Renal blood flow ([2]; time 0 min) was 45 ml/min/100 g and the Renal resistance ([2]; time 0 min) was 1.22 mmHg/min/100 g. For the same molecule, the Urine flow ([2]; time 0.5 h) was 148 mL, the Renal blood flow ([2]; time 30 min) was 79 ml/min/100 g and the Renal resistance ([2]; time 30 min) was 0.58 mmHg/min/100 g. For the same molecule, the Urine flow ([2]; time 1 h) was 124 mL, the Renal blood flow ([2]; time 60 min) was 84 ml/min/100 g and the Renal resistance ([2]; time 60 min) was 0.55 mmHg/min/100 g. It also gave a Renal blood flow ([2]; time 120 min) of 85 ml/min/100 g, a Renal resistance ([2]; time 120 min) of 0.56 mmHg/min/100 g and a Urine flow ([2]; time 2 h) of 116 mL. For the same molecule, the Urine flow ([2]; time 3 h) was 80 mL, the Renal blood flow [2, 6] was 85 ml/min/100 g and the Renal resistance [2, 6] was 0.60 mmHg/min/100 g. For the same molecule, the Urine flow ([2]; time 4 h) was 62 mL, the Renal blood flow [2, 7] was 97 ml/min/100 g and the Renal resistance [2, 7] was 0.56 mmHg/min/100 g. It also gave a Urine flow ([2]; time 5 h) of 44 mL, a Renal blood flow [2, 8] of 93 ml/min/100 g and a Renal resistance [2, 8] of 0.62 mmHg/min/100 g. The Renal blood flow [2, 9] was 77 ml/min/100 g, the Renal resistance [2, 9] was 0.78 mmHg/min/100 g and the “increase in plasma endothelin-1 from baseline” value [3] was “more than 50%”. The plasma levels [4] was “exceeding 350 ng/ml” and the “pharmacokinetic interactions with cyclosporine A and tacrolimus” value [5] was “absence of pharmacokinetic interactions”.
